biological target: T1, HDAC6 enzyme (Homo sapiens, UniProt Q9UBN7); assay: HDAC6 enzyme inhibitory activity (HDAC-Glo I/II Assay kit); format: biochemical; details: 10 μM; wells without enzyme = 100% inhibition
T1 construct: transducing full length HDAC6 gene into Sf-9 insect cells; GST; purchased SignalChem; host or cells: Sf-9 insect cells
T1 sequence (Q9UBN7 1-1215): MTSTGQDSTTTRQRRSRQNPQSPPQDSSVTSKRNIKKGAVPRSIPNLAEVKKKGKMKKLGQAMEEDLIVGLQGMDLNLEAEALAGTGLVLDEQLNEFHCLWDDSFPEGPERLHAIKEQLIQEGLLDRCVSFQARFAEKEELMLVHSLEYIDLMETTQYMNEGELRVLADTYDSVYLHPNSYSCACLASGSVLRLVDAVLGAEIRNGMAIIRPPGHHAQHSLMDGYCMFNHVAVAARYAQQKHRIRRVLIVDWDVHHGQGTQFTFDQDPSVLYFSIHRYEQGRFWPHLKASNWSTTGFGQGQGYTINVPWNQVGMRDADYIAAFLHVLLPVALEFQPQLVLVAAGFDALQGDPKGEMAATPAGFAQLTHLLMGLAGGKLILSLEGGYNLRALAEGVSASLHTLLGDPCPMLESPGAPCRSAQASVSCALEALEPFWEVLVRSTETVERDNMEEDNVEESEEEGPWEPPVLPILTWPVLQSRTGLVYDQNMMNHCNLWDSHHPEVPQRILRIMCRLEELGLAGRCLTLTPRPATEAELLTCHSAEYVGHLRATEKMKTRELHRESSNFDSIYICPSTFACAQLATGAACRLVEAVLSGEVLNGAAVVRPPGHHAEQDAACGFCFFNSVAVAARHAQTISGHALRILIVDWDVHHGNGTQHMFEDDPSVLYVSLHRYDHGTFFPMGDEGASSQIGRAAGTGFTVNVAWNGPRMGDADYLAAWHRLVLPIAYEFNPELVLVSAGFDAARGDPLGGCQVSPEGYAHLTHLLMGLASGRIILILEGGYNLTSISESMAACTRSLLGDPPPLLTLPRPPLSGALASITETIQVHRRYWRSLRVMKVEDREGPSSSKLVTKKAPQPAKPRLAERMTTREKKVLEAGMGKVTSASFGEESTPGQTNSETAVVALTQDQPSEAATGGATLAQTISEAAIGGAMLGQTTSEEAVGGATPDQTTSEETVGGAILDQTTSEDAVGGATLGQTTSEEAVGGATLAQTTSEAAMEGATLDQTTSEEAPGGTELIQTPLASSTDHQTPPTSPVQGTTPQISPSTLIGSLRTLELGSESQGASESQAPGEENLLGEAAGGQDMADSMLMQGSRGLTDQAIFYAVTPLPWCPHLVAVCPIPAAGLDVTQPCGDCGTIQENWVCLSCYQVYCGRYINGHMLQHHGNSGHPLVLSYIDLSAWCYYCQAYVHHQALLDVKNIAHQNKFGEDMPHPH
Summary of the method: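 Inhibition is calculated as relative activity, taking luminescence in enzyme-free wells as complete inhibition. The enzyme, full-length and GST-purified after Sf-9 expression, was exposed to compound for 60 min at room temperature before a 20 min HDAC-Glo reaction.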

Row | Structure (SMILES) | HDAC6 inhibitory rate (%) (10 μM)
1 | O=C1c2cc(-c3nnc(C(F)F)o3)ccc2CN1N1CCCC1c1ccccn1 (stereo not drawn) [Example 596, 6-(5-(difluoromethyl)-1,3,4-oxadiazol-2-yl)-2-(2-(pyridin-2-yl)pyrrolidin-1-yl)isoindolin-1-one (optical isomer)] | 100
2 | O=C1c2cc(-c3nnc(C(F)F)o3)ccc2CN1N1CCC(F)(F)CC1c1ccc(F)cn1 (stereo not drawn) [Example 612, 2-(4,4-Difluoro-2-(5-fluoropyridin-2-yl)piperidin-1-yl)-6-(5-(difluoromethyl)-1,3,4-oxadiazol-2-yl)isoindolin-1-one (Optical Isomer)] | 99

More lines, now with the values ahead:

Row | HDAC6 inhibitory rate (%) (10 μM) | Structure (SMILES)
3 | 99 | O=C1c2cc(-c3nnc(C(F)F)o3)ccc2CN1N1CCCC1c1ccccn1 (stereo not drawn) [Example 597, 6-(5-(difluoromethyl)-1,3,4-oxadiazol-2-yl)-2-(2-(pyridin-2-yl)pyrrolidin-1-yl)isoindolin-1-one (optical isomer)]
4 | 99 | O=C1c2cc(-c3nnc(C(F)F)o3)ccc2CN1N1CCC(F)(F)CC1c1ccc(F)cn1 (stereo not drawn) [Example 610, 2-(4,4-Difluoro-2-(5-fluoropyridin-2-yl)piperidin-1-yl)-6-(5-(difluoromethyl)-1,3,4-oxadiazol-2-yl)isoindolin-1-one (Optical Isomer)]

same assay, conditions: 10 μM; wells without enzyme = 100% inhibition; read-out: HDAC6 inhibitory rate (%) (10 μM)

Row | Structure (SMILES) | inhibition at 10 µM [%]
5 | CC(C)(OC(=O)N[C@H]1[C@H](N2Cc3ccc(-c4nnc(C(F)F)o4)cc3C2=O)CCCC1(F)F)C(F)F [Example 583, 1,1-difluoro-2-methylpropan-2-yl ((1S,6R)-6-(6-(5-(difluoromethyl)-1,3,4-oxadiazol-2-yl)-1-oxo-1,3-dihydro-2H-isoindol-2-yl)-2,2-difluorocyclohexyl)carbamate] | 99
6 | O=C1c2cc(-c3nnc(C(F)F)o3)cnc2CN1[C@@H]1CCCC[C@H]1Oc1ccccn1 [Example 593, 3-(5-(difluoromethyl)-1,3,4-oxadiazol-2-yl)-6-((1R,2R)-2-(pyridin-2-yloxy)cyclohexyl)-6,7-dihydro-5H-pyrrolo[3,4-b]pyridin-5-one] | 100
7 | O=C1c2cc(-c3nnc(C(F)F)o3)ccc2CN1N1CCCCC1c1ccc(F)cc1 (stereo not shown) [Example 594, 6-(5-(difluoromethyl)-1,3,4-oxadiazol-2-yl)-2-(2-(4-fluorophenyl)piperidin-1-yl)isoindolin-1-one] | 101
8 | O=C1c2cc(-c3nnc(C(F)F)o3)cnc2CN1[C@@H]1CCCC(F)(F)[C@H]1NC(=O)C(F)(F)C(F)(F)F [Example 599, N-((1S,6R)-6-(3-(5-(difluoromethyl)-1,3,4-oxadiazol-2-yl)-5-oxo-5,7-dihydro-6H-pyrrolo[3,4-b]pyridin-6-yl)-2,2-difluorocyclohexyl)-2,2,3,3,3-pentafluoropropanamide] | 99
9 | O=C1c2cc(-c3nnc(C(F)F)o3)cnc2CN1[C@@H]1CCCC(F)(F)[C@H]1NC(=O)C(F)(F)C(F)F [Example 601, N-((1S,6R)-6-(3-(5-(difluoromethyl)-1,3,4-oxadiazol-2-yl)-5-oxo-5,7-dihydro-6H-pyrrolo[3,4-b]pyridin-6-yl)-2,2-difluorocyclohexyl)-2,2,3,3-tetrafluoropropanamide] | 99
10 | O=C1c2cc(-c3nnc(C(F)F)o3)ccc2CN1N1CCCCC1c1cccc(F)c1 (stereo not shown) [Example 603, 6-(5-(difluoromethyl)-1,3,4-oxadiazol-2-yl)-2-(2-(3-fluorophenyl)piperidin-1-yl)isoindolin-1-one] | 100
11 | CC(C)(CF)OC(=O)N[C@H]1[C@H](N2Cc3ncc(-c4nnc(C(F)F)o4)cc3C2=O)CCCC1(F)F [Example 607, 1-fluoro-2-methylpropan-2-yl ((1S,6R)-6-(3-(5-(difluoromethyl)-1,3,4-oxadiazol-2-yl)-5-oxo-5,7-dihydro-6H-pyrrolo[3,4-b]pyridin-6-yl)2,2-difluorocyclohexyl)carbamate] | 99
12 | Cn1cc(C2CCCCN2N2Cc3ccc(-c4nnc(C(F)F)o4)cc3C2=O)cn1 (stereo not shown) [Example 609, 6-(5-(difluoromethyl)-1,3,4-oxadiazol-2-yl)-2-(2-(1-methyl-1H-pyrazol-4-yl)piperidin-1-yl)isoindolin-1-one] | 99
13 | CC(=O)N1CCC(C2CCCCN2N2Cc3ccc(-c4nnc(C(F)F)o4)cc3C2=O)CC1 (stereo not shown) [Example 611, 2-(1′-acetyl-2,4′-bipiperidin-1-yl)-6-(5-(difluoromethyl)-1,3,4-oxadiazol-2-yl)isoindolin-1-one] | 101

Continued, values first:

Row | inhibition at 10 µM [%] | Structure (SMILES)
14 | 100 | CC(C)(CF)OC(=O)N[C@H]1[C@H](N2Cc3ccc(-c4nnc(C(F)F)o4)cc3C2=O)CCCC1(F)F [Example 582, 1-fluoro-2-methylpropan-2-yl ((1S,6R)-6-(6-(5-(difluoromethyl)-1,3,4-oxadiazol-2-yl)-1-oxo-1,3-dihydro-2H-isoindol-2-yl)-2,2-difluorocyclohexyl)carbamate]
15 | 99 | Cn1cc(C(=O)c2ccccc2)c(N2Cc3ccc(-c4nnc(C(F)F)o4)cc3C2=O)n1 [Example 592, 2-(4-benzoyl-1-methyl-1H-pyrazol-3-yl)-6-(5-(difluoromethyl)-1,3,4-oxadiazol-2-yl)isoindolin-1-one]
16 | 100 | O=C1c2cc(-c3nnc(C(F)F)o3)ccc2CN1N1CCC(F)(F)CC1c1ccc(F)cn1 (stereo not shown) [Example 595, 2-(4,4-difluoro-2-(5-fluoropyridin-2-yl)piperidin-1-yl)-6-(5-(difluoromethyl)-1,3,4-oxadiazol-2-yl)isoindolin-1-one]
17 | 100 | Cc1ccc(C2CC(F)(F)CCN2N2Cc3ccc(-c4nnc(C(F)F)o4)cc3C2=O)nc1 (stereo not shown) [Example 600, 6-(5-(difluoromethyl)-1,3,4-oxadiazol-2-yl)-2-(4,4-difluoro-2-(5-methylpyridin-2-yl)piperidin-1-yl)isoindolin-1-one]
18 | 101 | O=C1c2cc(-c3nnc(C(F)F)o3)ccc2CN1N1CCCCC1c1cncc(F)c1 (stereo not shown) [Example 602, 6-(5-(difluoromethyl)-1,3,4-oxadiazol-2-yl)-2-(2-(5-fluoropyridin-3-yl)piperidin-1-yl)isoindolin-1-one]
19 | 98 | O=C(OCc1ccccc1)C1CC(F)(F)CCN1N1Cc2ccc(-c3nnc(C(F)F)o3)cc2C1=O (stereo not shown) [Example 604, benzyl 1-(6-(5-(difluoromethyl)-1,3,4-oxadiazol-2-yl)-1-oxo-1,3-dihydro-2H-isoindol-2-yl)-4,4-difluoropiperidine-2-carboxylate]
20 | 99 | CC(C)(C(=O)N[C@H]1[C@H](N2Cc3ncc(-c4nnc(C(F)F)o4)cc3C2=O)CCCC1(F)F)C(F)(F)F [Example 605, N-((1S,6R)-6-(3-(5-(difluoromethyl)-1,3,4-oxadiazol-2-yl)-5-oxo-5,7-dihydro-6H-pyrrolo[3,4-b]pyridin-6-yl)-2,2-difluorocyclohexyl)-3,3,3-trifluoro-2,2-dimethylpropanamide]
21 | 99 | O=C1c2cc(-c3nnc(C(F)F)o3)cnc2CN1C1CCCC(F)(F)[C@H]1NC(=O)C1(C(F)(F)F)CC1 (stereo partly shown) [Example 606]
22 | 99 | CC(C)(OC(=O)N[C@H]1[C@H](N2Cc3ncc(-c4nnc(C(F)F)o4)cc3C2=O)CCCC1(F)F)C(F)F [Example 608, 1,1-difluoro-2-methylpropan-2-yl ((1S,6R)-6-(3-(5-(difluoromethyl)-1,3,4-oxadiazol-2-yl)-5-oxo-5,7-dihydro-6H-pyrrolo[3,4-b]pyridin-6-yl)-2,2-difluorocyclohexyl)carbamate]
